One compound from US20250084044A1, “PROTOPORPHYRINOGEN OXIDASE INHIBITORS” (Enko Chem, Inc., priority 2022, published 2025) can be followed below.

Holding throughout (type): in vivo
For experiment [1], the system named is Amaranthus retroflexus (AMARE). Kind of experiment: Post-emergence herbicidal activity, AMARE. The following applies: 100 ppm, 7 days after treatment, Table 3b. The protocol:
(§1) Selected compounds of the invention were screened at 100 PPM against Amaranthus retroflexus (AMARE), Setaria italica (SETIT), and Echinochloa crus-galli (ECHCG). […]
(§2) Compounds were formulated in 25% Acetone, 1% Crop oil concentrate (COC-Agridex), 0.1% Tween-20, and 2.5% Ammonium sulphate (AMS). Three replicate pots were treated with each compound. Treatment consisting of the above formulation excluding active compound was applied as a treatment control (TC). Plants were treated with the test compound solution in a laboratory spray chamber fitted with 8003 flat fan nozzles calibrated to deliver 187-200 L ha^−1 at 269 kPa. Plants were placed back in the growth chamber and evaluated for % visual injury compared to TC 7 days after treatment (DAT). The data presented in Table 3 indicate a percentage control, where 100% control indicates complete inhibition of growth. […]

Experiment [2] deals with Setaria italica (SETIT). Kind of experiment: Post-emergence herbicidal activity, SETIT. The following applies: 100 ppm, 7 days after treatment, Table 3b. How it is done: Selected compounds of the invention were screened at 100 PPM against Amaranthus retroflexus (AMARE), Setaria italica (SETIT), and Echinochloa crus-galli (ECHCG).
Accordingly, PPO susceptible weed seeds were sown in 5″×5″ pots by quadrant containing Miracle-Gro potting mix (Scotts Miracle-Gro Company, Marysville, OH. USA) and grown in a Conviron growth chamber with appropriate growth conditions (temperature of 26/22° C. with photoperiod 16/8 h light day/night and light intensity of 300 μmol m^−2 s^−1 supplemented by LED lamps). Relative humidity in the growth chamber was maintained at around 65%. Plants were grown until 2-4 leaf stage and thinned to 5-8 plants per quadrant per species.
(§3) Compounds were formulated in 25% Acetone, 1% Crop oil concentrate (COC-Agridex), 0.1% Tween-20, and 2.5% Ammonium sulphate (AMS). Three replicate pots were treated with each compound. Treatment consisting of the above formulation excluding active compound was applied as a treatment control (TC). Plants were treated with the test compound solution in a laboratory spray chamber fitted with 8003 flat fan nozzles calibrated to deliver 187-200 L ha^−1 at 269 kPa. Plants were placed back in the growth chamber and evaluated for % visual injury compared to TC 7 days after treatment (DAT). The data presented in Table 3 indicate a percentage control, where 100% control indicates complete inhibition of growth.
(§4) Selected compounds of the invention were screened at 100 PPM against Amaranthus retroflexus (AMARE), Echinochloa crus-galli (ECHCG), Kochia scoparia (KCHSC), and Setaria italica (SETIT).
(§5) Accordingly, PPO susceptible weed seeds were sown in 5″ 5″ pots by quadrant containing Miracle-Gro potting mix (Scotts Miracle-Gro Company, Marysville, OH, USA) and grown in a Conviron growth chamber with appropriate growth conditions (temperature of 26/22° C. with photoperiod 16/8 h light day/night and light intensity of […] supplemented by LED lamps). Relative humidity in the growth chamber was maintained at around 65%. Plants were grown until 2-4 leaf stage and thinned to 5-8 plants per quadrant per species.

The subject of experiment [3] is Echinochloa crus-galli (ECHCG). Nature of the experiment: Post-emergence herbicidal activity, ECHCG. The following applies: 100 ppm, 7 days after treatment, Table 3b. The protocol: as §1, §2
Experiment [4] deals with Kochia scoparia (KCHSC). Nature of the experiment: Post-emergence herbicidal activity, KCHSC. The following applies: 7 days after treatment, Table 3b. How it is done:
as §4, §5, §3

The subject of experiment [5] is Amaranthus retroflexus (AMARE). Kind of experiment: Pre-emergence herbicidal activity, AMARE. As to conditions: 7 days after treatment. The text has this: (§6) Selected compounds of the invention were screened at 200 PPM against Amaranthus retroflexus (AMARE). Echinochloa crus-galli (ECHCG). Kochia scoparia (KCHSC), and Selaria italica (SETIT).
(§7) Accordingly, PPO susceptible weed seeds were planted in 5″×5″ pots by quadrant containing custom field soil mix (Sandy loam with 4.7% OM, pH 7.0) and covered with a fine layer of the same soil. Compounds were formulated in 25% Acetone, 1% Crop oil concentrate (COC-Agridex), 0.1% Tween-20, and 2.5% Ammonium sulphate (AMS). Three replicate pots were treated with each compound. Treatment consisting of the above formulation excluding active compound was applied as a treatment control (TC). Pots were treated with the test compound solution in a laboratory spray chamber fitted with 8003 flat fan nozzles calibrated to deliver 187-200 L ha^−1 at 269 kPa. Compound was incorporated into the soil by simulating rainfall equivalent to 0.2 mm using the same track sprayer. Subsequently, pots were irrigated from the bottom until assessed for % growth and germination inhibition. Pots were placed back in the growth chamber and evaluated for % growth and germination inhibition compared to TC 7 days after treatment (DAT). Growth conditions are similar to the ones mentioned in POST emergence assay.
(§8) The data presented in Table 4 indicate a percentage control, where 100% control indicates complete inhibition of growth.

The subject of experiment [6] is Kochia scoparia (KCHSC). Kind of experiment: Pre-emergence herbicidal activity, KCHSC. The following applies: 7 days after treatment.
From the text: as §6, §7, §8

In experiment [7] the test system is Setaria italica (SETIT). Kind of experiment: Pre-emergence herbicidal activity, SETIT. As to conditions: 7 days after treatment.
From the text: as §6, §7, §8

Experiment [8] deals with Echinochloa crus-galli (ECHCG). Nature of the experiment: Pre-emergence herbicidal activity, ECHCG. The following applies: 7 days after treatment.
From the text: as §6, §7, §8

Turning to `COC(=O)C1CN(C(=O)CN2C(=O)C(F)(F)Oc3cc(F)c(-c4c(F)c(F)c(F)c(F)c4F)cc32)C1` [Compound 86, methyl 1-(2-(2,2,7-trifluoro-3-oxo-6-(perfluorophenyl)-2,3-dihydro-4H-benzo[b][1,4]oxazin-4-yl)acetyl)azetidine-3-carboxylate], the “Post-emergence (100 ppm) AMARE” value in experiment [1] turned out to be 100%. Besides, the “Post-emergence (100 ppm) SETIT” value in experiment [2] is listed as 100%. Also, the “Post-emergence (100 ppm) ECHCG” value in experiment [3] is recorded as 69%. For the same compound, the “Post-emergence (100 ppm) KCHSC” value in experiment [4] is recorded as 11%. Further, in experiment [5], the “Pre-emergence (200 ppm) AMARE” value is listed as 68%. Further, the “Pre-emergence (200 ppm) KCHSC” value in experiment [6] came out at 27%. Further, in experiment [7], the “Pre-emergence (200 ppm) SETIT” value is 7%. The “Pre-emergence (200 ppm) ECHCG” value in experiment [8] was 5%.
